{"source": "paper PMC6906394", "about": "“Radiomodifying action, Pharmacokinetic and Biodistribution of Ethyl 3, 4, 5-trihydroxybenzoate-Implication in development of radiomitigator” (Scientific Reports, 2019)", "key": {"[1]": {"assay": "Stability of GAE in mice plasma and liver homogenate (QC samples)", "assay_type": "in vitro ADME", "details": "for Stability % Long term: 2 week of storage at −20 °C; for freeze-thaw stability (fraction remaining) at 50 ng/mL / freeze-thaw stability (fraction remaining) at 250 ng/mL / freeze-thaw stability (fraction remaining) at 500 ng/mL: mouse, three consecutive freeze thaw cycles (−20 °C to room temperature)", "method": "The recovery of GAE at three concentration was 79.3, 89.6 and 99.2% in plasma. […] The analyte were also shown to be stable in the plasma at room temperature for atleast 8 h with a reduction of less than 12–15% (Table 1). Based on the result reliable, reproducible and robust method has been developed and validated.\nStandard stock solutions of GAE at 1 mg/mL were prepared and dissolved in appropriate amounts of diluent stock, water, and methanol (8:2 v/v). GAE was adequately diluted with diluent stock to give an intermediate solution at 100 µg/mL for each analyte. GAE calibration standards were at concentration of 5, 10, 20, 30, 40, 50, 100, 250, 500 ng/mL. Internal standard propyl gallate (PG) were prepared to spiked aliquots of blank mouse plasma (200 µL). […] combined spiking solution at a final concentration of 5, 10, 20, 40, 50, 100, 250, 500 and 1000 ng/mL were prepared and used to spike aliquots of blank tissue homogenates of Liver, kidney, heart, brain, and spleen (400 µL). The entire sample was stored at 4 °C. Quality control samples were prepared independently in the same biological matrices (plasma and tissue homogenate of liver) stored at −20 °C until use with each analytical run. Intra-day and inter-day precision were assessed by using six replicate QC samples at three levels of GAE included in each run to determine the accuracy and precision. […] The inter-day accuracy and precision were assessed by analyzing three batches on different days. The recoveries of GAE from plasma and tissue (liver) homogenate samples were done at three QC levels. The recovery of the analyte was calculated by comparing the analyte peaks of extracted QC samples against the equivalent aqueous solution.\nThe QC samples were kept at room temperature for 6 h and a freeze-thaw cycle (−80 °C) was repeated for three times. […] For all storage conditions, replication of three concentrations was analyzed after the operation and the experimental result was obtained through a chromatographic area and compared with the nominal values. On the basis of previous studies reported on pharmacokinetic and biodistribution[22],[23], we standardized and validated our study to further investigate the radiomodifying action of GAE."}, "NF-kB": {"tested_on": "NF-kB", "assay": "Immunofluorescent staining of NF-kB expression in liver and kidney sections", "assay_type": "in vivo, mice", "details": "R + GAE group, compared to irradiated group", "method": "Black C57BL/6 male mice weighing 28–30 g were maintained at the Institutional Animal Experimental Facility. Animals were fed according to standard chow diet having free access to food and water ad libitum. The environmental condition was maintained at room temperature (22 ± 2 °C), relative humidity (45–60%) and 12 h dark/light cycle controlled facility. In this study, mice were randomly assigned to four different groups (n = 21) i.e untreated control (UC), GAE-treated (GAE), Radiation + GAE (R + GAE), Radiation group (R). Mice fasted overnight with free access to water before being dosed. Isolated GAE from leaves was dissolved with distilled water and ethanol in (7:3 v/v) and administered orally at a dose of 200 mg/kg body weight to GAE-treated and R + GAE treated groups only. The experiment was carried out in accordance to regulation and guideline of the, Committee for the purpose of control and supervision of Experiments on animals (CPCSEA), and study was approved by Institutional Animal Experimental Committee (IAEC), Institute of Nuclear Medicine & Allied Science, Delhi, India.\nGroup I untreated control (UC), Group II GAE-treated (GAE), Group III Radiation + GAE (R + GAE) and Group IV Radiation (R) exposed. The GAE was administered orally 15 min post irradiation. […]"}}, "note": "Entries after “also recorded” stand apart in the source; their conditions may differ.", "data": [{"smiles": "CCOC(=O)c1cc(O)c(O)c(O)c1", "note": "[GAE, Ethyl 3,4,5-trihydroxybenzoate]", "values": [{"measurement": "reduction after freeze-thaw cycle", "setting": "[1]; freeze-thaw cycle", "result": "less than 8%"}, {"measurement": "Stability % Long term", "setting": "[1]; liver, 50 ng/mL", "result": "62.6 ± 24.5", "unit": "%"}, {"measurement": "Stability % Short term", "setting": "[1]; liver, 50 ng/mL, room temperature for 24 h", "result": "66.9 ± 22.18", "unit": "%"}, {"measurement": "Stability % Long term", "setting": "[1]; liver, 250 ng/mL", "result": "79.26 ± 6.06", "unit": "%"}, {"measurement": "Stability % Short term", "setting": "[1]; liver, 250 ng/mL, room temperature for 24 h", "result": "86.8 ± 1.7", "unit": "%"}, {"measurement": "Stability % Long term", "setting": "[1]; liver, 500 ng/mL", "result": "95.13 ± 7.6", "unit": "%"}, {"measurement": "Stability % Short term", "setting": "[1]; liver, 500 ng/mL, room temperature for 24 h", "result": "99.9 ± 0.47", "unit": "%"}, {"measurement": "freeze-thaw stability (fraction remaining) at 50 ng/mL", "setting": "[1]; liver homogenate, liver, 50 ng/mL", "result": "0.648 ± 0.049"}, {"measurement": "freeze-thaw stability (fraction remaining) at 250 ng/mL", "setting": "[1]; liver homogenate, liver, 250 ng/mL", "result": "0.842 ± 0.025"}, {"measurement": "freeze-thaw stability (fraction remaining) at 500 ng/mL", "setting": "[1]; liver homogenate, liver, 500 ng/mL", "result": "0.978 ± 0.049"}, {"measurement": "freeze-thaw stability (fraction remaining) at 50 ng/mL", "setting": "[1]; plasma, 50 ng/mL", "result": "0.79 ± 0.0225"}, {"measurement": "freeze-thaw stability (fraction remaining) at 250 ng/mL", "setting": "[1]; plasma, 250 ng/mL", "result": "0.901 ± 0.0093"}, {"measurement": "freeze-thaw stability (fraction remaining) at 500 ng/mL", "setting": "[1]; plasma, 500 ng/mL", "result": "0.9342 ± 0.0037"}, {"measurement": "Stability % Long term", "setting": "[1]; plasma, 50 ng/mL", "result": "70.32 ± 1.37", "unit": "%"}, {"measurement": "Stability % Short term", "setting": "[1]; plasma, 50 ng/mL, room temperature for 24 h", "result": "79.35 ± 1.37", "unit": "%"}, {"measurement": "Stability % Long term", "setting": "[1]; plasma, 250 ng/mL", "result": "87.55 ± 0.635", "unit": "%"}, {"measurement": "Stability % Short term", "setting": "[1]; plasma, 250 ng/mL, room temperature for 24 h", "result": "89.67 ± 1.58", "unit": "%"}, {"measurement": "Stability % Long term", "setting": "[1]; plasma, 500 ng/mL", "result": "92.01 ± 0.179", "unit": "%"}, {"measurement": "Stability % Short term", "setting": "[1]; plasma, 500 ng/mL, room temperature for 24 h", "result": "99.25 ± 0.120", "unit": "%"}, {"measurement": "reduction in plasma at room temperature", "setting": "[1]; plasma, room temperature for at least 8 h", "result": "12–15%"}, {"measurement": "stability at room temperature", "setting": "[1]; room temperature for 24 h, plasma and tissue samples", "result": "stable"}, {"measurement": "stability at −20 °C", "setting": "[1]; −20 °C for one month", "result": "stable"}, {"measurement": "NF-kB positive fluorescence expression", "setting": "NF-kB", "result": "not strong; also recorded: not positive"}]}]}
